Assay results reported in ChEMBL document CHEMBL1148830, “Discovery and investigation of antiproliferative and apoptosis-inducing properties of new heterocyclic podophyllotoxin analogues accessible by a one-step multicomponent synthesis” (2007).
The source made the active and inactive calls. The calls are words filed in the database; no cut-off is given here.

Legend:
HeLa [1] = test: Antiproliferative activity against HeLa cells assessed as cell viability at 5 uM after 48 hrs by MTT assay relative to control; assay type: functional; conditions: Homo sapiens, read-out: Activity
Jurkat [2] = test: Induction of apoptosis in Jurkat cells assessed as cell viability at 5 uM after 48 hrs by flow cytometry Annexin-V/propidium iodide assay; assay type: functional; conditions: Homo sapiens, read-out: Activity
Jurkat [3] = test: Antiproliferative activity against human Jurkat cells assessed as cell viability at 5 uM after 48 hrs by MTT assay; assay type: functional; conditions: read-out: Activity
[4] = Antiproliferative activity against human MCF7/AZ cells assessed as cell viability at 5 uM after 48 hrs by MTT assay relative to control; assay type: functional; conditions: read-out: Activity
Jurkat [5] = test: Increase in caspase 3 activation in Jurkat cells at 5 uM; assay type: functional; conditions: for Activity: Homo sapiens
Jurkat [6] = test: Effect on apoptosis in Jurkat cells assessed as cleavage of procaspase 3 to active enzyme at 1 uM; assay type: functional, cell-based; conditions: Homo sapiens
Jurkat [7] = test: Increase in caspase 3 activation in Jurkat cells at 1 uM; assay type: functional, cell-based; conditions: Homo sapiens
Jurkat [8] = test: Effect on apoptosis in Jurkat cells assessed as cleavage of PARP at 1 uM; assay type: functional, cell-based; conditions: Homo sapiens
Jurkat [9] = test: Effect on apoptosis in Jurkat cells assessed as cleavage of PARP at 5 uM; assay type: functional, cell-based; conditions: Homo sapiens
Jurkat [10] = test: Effect on apoptosis in Jurkat cells assessed as DNA laddering after 24 hrs; assay type: functional, cell-based; conditions: Homo sapiens
HeLa [11] = test: Growth inhibition of HeLa cells after 48 hrs by MTT assay; assay type: functional; conditions: Homo sapiens
Jurkat [12] = test: Effect on apoptosis in Jurkat cells assessed as cleavage of procaspase 3 to active enzyme at 5 uM; assay type: functional, cell-based; conditions: Homo sapiens
Jurkat [13] = test: Induction of apoptosis in Jurkat cells after 24 hrs by flow cytometric Annexin-V/propidium iodide assay; assay type: functional, cell-based; conditions: Homo sapiens
Lymphocyte = test: Induction of apoptosis in human whole blood lymphocytes after 24 hrs by flow cytometric Annexin-V/propidium iodide assay; assay type: functional, cell-based

| SMILES | viability at 5 µM (HeLa [1]) | viability at 5 µM (Jurkat [2]) | viability at 5 µM (Jurkat [3]) | viability at 5 µM [4] | further results |
| --- | --- | --- | --- | --- | --- |
| COc1cc(C2C3=C(COC3=O)Nc3c2c(C)nn3-c2ccc(C)cc2)cc(OC)c1OC (centres undefined) | 77% | 23% | 77% | 71% |  |
| Cc1n[nH]c2c1C(c1cccs1)C1=C(COC1=O)N2 (centres undefined) | 82% | 18% | 74% | 98% |  |
| Cc1nc2ccccc2nc1C1C2=C(COC2=O)Nc2[nH]nc(C)c21 (centres undefined) | 72% | 11% | 97% | 100% |  |
| COc1cc(C2C3=C(COC3=O)Nc3c2c(-c2ccc(Br)cc2)nn3-c2ccccc2)cc(OC)c1OC (centres undefined) | 73% | 2% | 99% | 90% |  |
| COc1ccc(C2C3=C(COC3=O)Nc3[nH]nc(C)c32)cc1 (centres undefined) | 73% | 11% | 94% | 82% |  |
| Cc1n[nH]c2c1C(C)C1=C(COC1=O)N2 (centres undefined) | 70% | 5% | 78% | 97% |  |
| COc1cc2c(c(OC)c1OC)-c1ccc(OC)c(=O)cc1[C@@H](NC(C)=O)CC2 |  |  |  |  | Activity (Jurkat [5]): Active |
| CC[C@]1(O)C[C@@H]2CN(CCc3c([nH]c4ccccc34)[C@@](C(=O)OC)(c3cc4c(cc3OC)N(C)[C@H]3[C@@](O)(C(=O)OC)[C@H](OC(C)=O)[C@]5(CC)C=CCN6CC[C@]43[C@@H]65)C2)C1 |  |  |  |  | Activity (Jurkat [6]): Active; Activity (Jurkat [7]): Active; Activity (Jurkat [8]): Active |
| COc1cc(C2C3=C(COC3=O)Nc3[nH]nc(C)c32)cc(OC)c1OC (centres undefined) | 50% | 55% | 47% | 58% | Fold change (Jurkat [5]): 3; Activity (Jurkat [9]): Active; Activity (Jurkat [10]): Active; GI50 (HeLa [11]): 5 µM; Activity (Jurkat [12]): Active; Activity (Jurkat [13]): Active; Activity (Lymphocyte): inactive |
| Cc1n[nH]c2c1C(c1cccc(Cl)c1)C1=C(COC1=O)N2 (centres undefined) | 43% | 28% | 76% | 54% | Fold change (Jurkat [5]): 3; GI50 (HeLa [11]): 10 µM |
| Cc1n[nH]c2c1C(c1ccccc1[N+](=O)[O-])C1=C(COC1=O)N2 (centres undefined) | 71% | 6% | 64% | 99% |  |
| Cc1n[nH]c2c1C(c1cccc(Br)c1)C1=C(COC1=O)N2 (centres undefined) | 51% | 58% | 68% | 63% | Fold change (Jurkat [5]): 3; GI50 (HeLa [11]): 5 µM; Activity (Jurkat [13]): Active; Activity (Lymphocyte): inactive |
| CSc1ccc(C2C3=C(COC3=O)Nc3[nH]nc(C)c32)cc1 (centres undefined) | 45% | 14% | 87% | 95% |  |
| Cc1n[nH]c2c1C(c1ccncc1)C1=C(COC1=O)N2 (centres undefined) | 94% | 4% | 92% | 100% |  |
| COc1cc(C2C3=C(COC3=O)Nc3[nH]nc(-c4ccc(Br)cc4)c32)cc(OC)c1OC (centres undefined) | 67% | 5% | 78% | 98% |  |
| CCOc1c(Br)cc(C2C3=C(COC3=O)Nc3[nH]nc(C)c32)cc1OC (centres undefined) | 52% | 49% | 28% | 49% | Fold change (Jurkat [5]): 3; GI50 (HeLa [11]): 5 µM; Activity (Lymphocyte): inactive |
| Cc1n[nH]c2c1C(c1ccccc1Br)C1=C(COC1=O)N2 (centres undefined) | 57% | 8% | 90% | 100% |  |
| COc1cc2c(cc1OC)C(c1cc(OC)c(OC)c(OC)c1)C1=C(O)OCC1=N2 (centres undefined) | 53% | 49% | 35% | 58% | GI50 (HeLa [11]): 6 µM |
| Cc1n[nH]c2c1C(c1cc(Br)c(O)c(Br)c1)C1=C(COC1=O)N2 (centres undefined) | 58% | 53% | 58% | 60% | Fold change (Jurkat [5]): 3; GI50 (HeLa [11]): 8 µM; Activity (Lymphocyte): inactive |
| COc1cc2c(c(OC)c1)C(c1cc(OC)c(OC)c(OC)c1)C1=C(COC1=O)N2 (centres undefined) | 55% | 55% | 55% | 43% |  |

| SMILES | viability at 5 µM (HeLa [1]) | viability at 5 µM (Jurkat [2]) | viability at 5 µM (Jurkat [3]) | viability at 5 µM [4] | further results |
| --- | --- | --- | --- | --- | --- |
| Cc1n[nH]c2c1C(c1ccc(N(C)C)c(Br)c1)C1=C(COC1=O)N2 (centres undefined) | 55% | 41% | 34% | 59% | Fold change (Jurkat [5]): 3; GI50 (HeLa [11]): 6 µM; Activity (Lymphocyte): inactive |
| COc1cc(C2C3=C(COC3=O)Nc3[nH]nc(C)c32)cc(Br)c1OC (centres undefined) | 16% | 56% | 29% | 47% | Fold change (Jurkat [5]): 3; GI50 (HeLa [11]): 0.75 µM; Activity (Lymphocyte): inactive |
| Cc1n[nH]c2c1C(c1cccnc1)C1=C(COC1=O)N2 (centres undefined) | 69% | 11% | 88% | 96% |  |
| COc1cc(C2C3=C(COC3=O)Nc3c2c(C)nn3C(C)C)cc(OC)c1OC (centres undefined) | 83% | 4% | 77% | 99% |  |
| COc1cc(C2C3=C(COC3=O)Nc3[nH]nc(C)c32)cc(Br)c1OC(C)=O (centres undefined) | 47% | 58% | 36% | 46% | Fold change (Jurkat [5]): 3; GI50 (HeLa [11]): 4 µM; Activity (Lymphocyte): inactive |
| Cc1n[nH]c2c1C(c1cccc(F)c1)C1=C(COC1=O)N2 (centres undefined) | 99% | 28% | 84% | 76% |  |
| Cc1n[nH]c2c1C(c1c(C)nn(-c3ccccc3)c1Cl)C1=C(COC1=O)N2 (centres undefined) | 58% | 6% | 94% | 100% |  |
| Cc1n[nH]c2c1C(c1ccccc1)C1=C(COC1=O)N2 (centres undefined) | 74% | 10% | 87% | 84% |  |
| COc1ccc(C2C3=C(COC3=O)Nc3[nH]nc(C)c32)cc1OC (centres undefined) | 73% | 5% | 88% | 95% |  |
| COc1cc(C2C3=C(COC3=O)Nc3[nH]nc(C)c32)cc([N+](=O)[O-])c1O (centres undefined) | 78% | 5% | 90% | 89% |  |
| Cc1n[nH]c2c1C(c1ccc(Br)cc1)C1=C(COC1=O)N2 (centres undefined) | 62% | 10% | 90% | 92% |  |
| Cc1n[nH]c2c1C(c1c(C)nc3sccn13)C1=C(COC1=O)N2 (centres undefined) | 84% | 7% | 85% | 100% | Activity (Jurkat [9]): inactive |
| C=C(C)[C@@H]1CC=C(C2C3=C(COC3=O)Nc3[nH]nc(C)c32)CC1 (some centres undefined) | 95% | 14% | 89% | 91% |  |
| Cc1n[nH]c2c1C(c1ccc(OC(F)(F)F)cc1)C1=C(COC1=O)N2 (centres undefined) | 97% | 9% | 97% | 84% |  |
| COc1cc(C2C3=C(COC3=O)Nc3cc4c(cc32)OCO4)cc(OC)c1OC (centres undefined) | 54% | 55% | 54% | 52% | GI50 (HeLa [11]): 6 µM |
| Cc1n[nH]c2c1C(c1ccc(Cl)c(Cl)c1)C1=C(COC1=O)N2 (centres undefined) | 88% | 33% | 71% | 56% |  |
| COc1cc(C2C3=C(COC3=O)Nc3c2c(C)nn3C)cc(OC)c1OC (centres undefined) | 55% | 5% | 79% | 98% |  |
| COc1cc([C@@H]2c3cc4c(cc3[C@H](O)[C@H]3COC(=O)[C@H]23)OCO4)cc(OC)c1OC [PODOFILOX] | 19% | 54% | 18% | 55% | Activity (Jurkat [5]): Active; Activity (Jurkat [9]): Active; GI50 (HeLa [11]): 0.02 µM; Activity (Jurkat [12]): Active; Activity (Jurkat [13]): Active; Activity (Lymphocyte): inactive |
| Cc1n[nH]c2c1C(c1ccsc1)C1=C(COC1=O)N2 (centres undefined) | 98% | 6% | 82% | 100% |  |
